Test results: patent publication US9884825B2, “Curcumin analogs and methods of making and using thereof” (Georgia State University Research Foundation, Inc., priority 2012, dated 2018)
Where two headings read alike, the source gives them in different places.

What was measured:
[1] = test system: human cervical cancer cells (HeLa); test: MTT cytotoxicity assay, HeLa cells; type: cell-based; settings: for IC50: Homo sapiens; for cytotoxicity against HeLa cells, in words: screening at 50 μM, 20 μM and 2 μM (FIGS. 1-2)
Protocol: (§1) Two cell human cancer cell lines were used in this study: human cervical cancer cells (HeLa) and human embryonic kidney 293 cells (Hek). The cell lines were obtained from ATCC (Rockville, Md., USA). Cell lines were cultured at 37° C. and 5% CO2 in DMEM medium with 10% fetal bovine serum (FBS) and 1% penicillin/streptomycin (all obtained from GibcoBRL, Grand Island, N.Y.). Cells were passaged three times weekly by trypsinisation with 0.25% trypsin/0.02% EDTA solution (Sigma) into 75 cm^2 tissue culture flasks (Nunc, Denamark).
(§2) Both human cervical cancer cells (HeLa) and human embryonic kidney 293 cells (Hek) cell lines were seeded into 96-well plate (2.5×10^4 in 100 μL per well). Testing compounds were dissolved or suspended in DMSO to make 10 mM stock solutions. Addition of compounds was performed after adherent cells reached 40-50% confluence. After incubation for 48 h at 37° C. in humidified atmosphere with 5% CO2, 10 μL of MTT (5 mg/mL in PBS) was added to each well and incubated for another 4 h. The culture medium was then aspirated and 100 μL of DMSO was added to each well. Optical densities at 490 nm were measured by microplate reader (PERKINELMER VICTOR 3V model 1420). All tests were performed in triplicates. Doxorubicin was used as a positive control and the same amount DMSO without compound was used as negative control. IC50 values were obtained from the curve fitting by using Sigma plot10.

[2] = test system: human embryonic kidney 293 cells (Hek); test: MTT cytotoxicity assay, Hek cells; type: cell-based; settings: Hek 293 cells, 48 h incubation
Protocol: as §1, §2

PC3 cell = test: Cytotoxicity against PC3 cell line; type: cell-based; settings: Homo sapiens, PC-3, mean ± spread, unit inferred, read-out: IC50 PC3 cell (Table 6)
DU145 cell = test: Cytotoxicity against DU145 cell line; type: cell-based; settings: Homo sapiens, DU-145, mean ± spread, unit inferred, read-out: IC50 DU145 cell (Table 6)
KB cell = test: Cytotoxicity against KB cell line; type: cell-based; settings: Homo sapiens, mean ± spread, unit inferred, read-out: IC50 KB cell (Table 6)
Molt4 cell = test: Cytotoxicity against MOLT4 cell line; type: cell-based; settings: Homo sapiens, MOLT-4; Table 3, SM compounds
[3] = HeLa cells, MTT assay, 48 h incubation, read-out: IC50 (μM) Hela
[4] = HeLa cells, MTT assay, range or bound stated in text, read-out: IC50 against HeLa cancer cell lines
[5] = HeLa cell, mean ± spread, unit inferred, read-out: IC50 HeLa cell (Table 6)
[6] = HeLa, Table 3, SM compounds, read-out: IC50 (μM) against Hela cell

SMILES | IC50 (PC3 cell) | IC50 (DU145 cell) | IC50 (KB cell) | IC50 [1, 5] | also measured
Cc1ccc(S(=O)(=O)N2C/C(=C\c3ccc(Br)cc3)C(=O)/C(=C/c3ccc(Br)cc3)C2)cc1 [3a, 3,5-Bis(4-bromobenzylidene)-1-tosylpiperidin-4-one] | – | – | – | – | IC50 [1, 3]: 0.28 µM; IC50 [1, 4]: 0.3 to 1.5 µM; cytotoxicity against HeLa cells, in words ([1]; MTT assay): very good activity; melting point: 214 °C; IC50 [2]: 1.39 µM; IC50 ([2]; Homo sapiens, HEK293, 48 h): 1.24 to 3.54 µM
Cc1ccc(S(=O)(=O)N2C/C(=C\c3ccc(F)cc3)C(=O)/C(=C/c3ccc(F)cc3)C2)cc1 [3j, 3,5-Bis(4-fluorobenzylidene)-1-tosylpiperidin-4-one] | – | – | – | – | IC50 [1, 3]: 0.61 µM; IC50 [1, 4]: 0.3 to 1.5 µM; melting point: 204 °C; IC50 [2]: 1.24 µM; IC50 ([2]; Homo sapiens, HEK293, 48 h): 1.24 to 3.54 µM
O=C1/C(=C/c2ccc(Cl)cc2)CN(S(=O)(=O)c2ccccc2)C/C1=C\c1ccc(Cl)cc1 [4e, 3,5-Bis(4-chlorobenzylidene)-1-(phenylsulfonyl)piperidin-4-one] | – | – | – | – | IC50 [1, 3]: 0.85 µM; IC50 [1, 4]: 0.3 to 1.5 µM; cytotoxicity against HeLa cells, in words ([1]; MTT assay): very good activity; melting point: 237 °C; IC50 [2]: 1.97 µM; IC50 ([2]; Homo sapiens, HEK293, 48 h): 1.24 to 3.54 µM
O=C1/C(=C/c2ccc(Br)cc2)CN(S(=O)(=O)c2ccccc2)C/C1=C\c1ccc(Br)cc1 [4i, 3,5-Bis(4-bromobenzylidene)-1-(phenylsulfonyl)piperidin-4-one] | – | – | – | – | IC50 [1, 3]: 1.44 µM; IC50 [1, 4]: 0.3 to 1.5 µM; melting point: 247 °C
CCN1C/C(=C\c2ccc(C(C)C)cc2)C(=O)/C(=C/c2ccc(C(C)C)cc2)C1 [6g, 1-Ethyl-3,5-bis(4-isopropylbenzylidene)piperidin-4-one] | – | – | – | – | IC50 [1, 3]: 0.86 µM; IC50 [1, 4]: < 1 µM; cytotoxicity against HeLa cells, in words ([1]; MTT assay): very good activity; IC50 [2]: 1.78 µM; IC50 ([2]; Homo sapiens, HEK293, 48 h): 1.24 to 3.54 µM
CCCCc1ccc(C=C2CN(Cc3cn(CCCC)nn3)CC(=Cc3ccc(CCCC)cc3)C2=O)cc1 [16b, 1-[(1-Butyl-1H-1,2,3-triazol-4-yl)methyl]-3,5-bis(4-butylbenzylidene)piperidin-4-one] | – | – | – | – | melting point: 136 °C
CCCCCn1cc(CN2CC(=Cc3ccc(CCCC)cc3)C(=O)C(=Cc3ccc(CCCC)cc3)C2)nn1 [16c, 3,5-Bis(4-butylbenzylidene)-1-[(1-pentyl-1H-1,2,3-triazol-4-yl)methyl]piperidin-4-one] | – | – | – | – | melting point: 145 °C
COc1cccc2c1C(=O)c1c(O)c3c(c(O)c1C2=O)C[C@@](O)(C(=O)CO)C[C@@H]3O[C@H]1C[C@H](N)[C@H](O)[C@H](C)O1 [Doxorubicin, reference compound] | 230 ± 10 nM | 470 ± 250 nM | 400 ± 110 nM | 0.96 ± 0.27 µM | IC50 [1, 3]: 2.89 µM; IC50 ([2]; Homo sapiens, HEK293, 48 h): 0.95 µM
COc1cc(/C=C2\CC/C(=C\c3ccc(OCCBr)c(OC)c3)C2=O)ccc1OCCBr [SM216] | – | – | – | – | IC50 (Molt4 cell): > 50 µM; IC50 [1, 6]: > 2.5 µM
COc1cc(/C=C2\CC/C(=C\c3ccc(OCCN4CCOCC4)c(OC)c3)C2=O)ccc1OCCN1CCOCC1 [SM218] | – | – | – | – | IC50 (Molt4 cell): > 2.5 µM; IC50 [1, 6]: > 2.5 µM
COc1cc(/C=C2\CC/C(=C\c3ccc(OCCn4ccnc4)c(OC)c3)C2=O)ccc1OCCn1ccnc1 [SM223] | – | – | – | – | IC50 (Molt4 cell): > 2.5 µM; IC50 [1, 6]: > 2.5 µM
COc1cc(/C=C2\CC/C(=C\c3ccc(OCCN4CCCCC4)c(OC)c3)C2=O)ccc1OCCN1CCCCC1 [SM226] | – | – | – | – | IC50 (Molt4 cell): 0.4 µM; IC50 [1, 6]: 0.02 µM
COc1cc(/C=C2\CC/C(=C\c3ccc(OCCN(C)C)c(OC)c3)C2=O)ccc1OCCN(C)C [SM229] | – | – | – | – | IC50 (Molt4 cell): 0.5 µM; IC50 [1, 6]: 0.03 µM
COc1cc(/C=C2\CC/C(=C\c3ccc(OCCn4ccnc4C)c(OC)c3)C2=O)ccc1OCCn1ccnc1C [SM232] | – | – | – | – | IC50 (Molt4 cell): 0.9 µM; IC50 [1, 6]: 0.1 µM
CCc1ccc(/C=C2\CN(Cc3cn(CCNc4ccnc5cc(Cl)ccc45)nn3)C/C(=C\c3ccc(CC)cc3)C2=O)cc1 [SR13] | 3700 ± 2100 nM | 6500 ± 3000 nM | 3700 ± 210 nM | 5.3 ± 2.8 µM | –
O=C1/C(=C/c2ccc(Br)cc2)CN(Cc2cn(CCNc3ccnc4cc(Cl)ccc34)nn2)C/C1=C\c1ccc(Br)cc1 [SR14] | 1500 ± 240 nM | 6600 ± 4600 nM | 1200 ± 320 nM | 2.7 ± 1.3 µM | –
O=C1/C(=C/c2ccc(Cl)cc2)CN(Cc2cn(CCNc3ccnc4cc(Cl)ccc34)nn2)C/C1=C\c1ccc(Cl)cc1 [SR15] | 3100 ± 1800 nM | 3100 ± 1300 nM | 3000 ± 310 nM | 2.1 ± 0.35 µM | –
O=C1/C(=C/c2ccc(F)cc2)CN(Cc2cn(CCNc3ccnc4cc(Cl)ccc34)nn2)C/C1=C\c1ccc(F)cc1 [SR16] | 2000 ± 50 nM | 3700 ± 2400 nM | 2600 ± 410 nM | 2.2 ± 0.93 µM | –
O=C1/C(=C/c2cccc(Br)c2)CN(Cc2cn(CCNc3ccnc4cc(Cl)ccc34)nn2)C/C1=C\c1cccc(Br)c1 [SR17] | 2800 ± 800 nM | 9600 ± 7300 nM | 4300 ± 2400 nM | 2.5 ± 1.2 µM | –
Cc1ccc(/C=C2\CN(Cc3cn(CCCNc4ccnc5cc(Cl)ccc45)nn3)C/C(=C\c3ccc(C)cc3)C2=O)cc1 [SR34] | 2700 ± 800 nM | 4000 ± 490 nM | 4700 ± 1100 nM | 2.8 ± 0.93 µM | –
O=C1/C(=C/c2ccc(Br)cc2)CN(Cc2cn(CCCNc3ccnc4cc(Cl)ccc34)nn2)C/C1=C\c1ccc(Br)cc1 [SR36] | 1700 ± 240 nM | 1900 ± 590 nM | 1500 ± 300 nM | 2 ± 1.2 µM | –
COc1ccc(/C=C2\CN(Cc3cn(CCCNc4ccnc5cc(Cl)ccc45)nn3)C/C(=C\c3ccc(OC)cc3)C2=O)cc1 [SR37] | 11000 ± 2700 nM | 6700 ± 1900 nM | 4700 ± 870 nM | 5 ± 2.2 µM | –
COc1ccc(/C=C2\CN(Cc3cn(CCCNc4ccnc5cc(Cl)ccc45)nn3)C/C(=C\c3ccc(OC)c(OC)c3)C2=O)cc1OC [SR38] | 2600 ± 400 nM | 6700 ± 4400 nM | 2100 ± 50 nM | 2.5 ± 1.3 µM | –
O=C1/C(=C/c2ccc(F)cc2)CN(Cc2cn(CCCNc3ccnc4cc(Cl)ccc34)nn2)C/C1=C\c1ccc(F)cc1 [SR39] | 3000 ± 750 nM | 5300 ± 2800 nM | 2600 ± 690 nM | 2.6 ± 1.4 µM | –
O=C1/C(=C/c2ccc(Cl)cc2)CN(Cc2cn(CCCNc3ccnc4cc(Cl)ccc34)nn2)C/C1=C\c1ccc(Cl)cc1 [SR40] | 1800 ± 680 nM | 1900 ± 620 nM | 1800 ± 290 nM | 1.8 ± 0.65 µM | –
